The source of these data is US7700647B2, “Fluorinated bis (phthalic anhydride) and method for producing the same” (priority 2003, dated 2010).

Holding throughout (type): physicochemical
Data set [1] in a line: Time to become a homogeneous solution when stirred with diamine in N,N-dimethylacetamide. Conditions: stirred at room temperature. The protocol:
Into a 100 milliliter—three necked flask were charged 14.51 g (24.92 mmol) of 4,4′-[(2,3,5,6-tetrafluoro-1,4-phenylene)bis(oxy)]bis(3,5,6-trifluorophthalic anhydride) obtained in Preparation Example 4, 4.48 g (24.92 mmol) of 1,3-diamino-2,4,5,6-tetrafluorobenzene and 31 g of N,N-dimethylacetamide. As this mixture was stirred at room temperature in an atmosphere of nitrogen, it took about 30 minutes before it became a homogeneous solution. By leaving standing further for 4 days, a light-yellow polyamic acid solution having a high viscosity was obtained.
Raw materials were charged into a three necked flask in the same manner as that of the above-mentioned Preparation Example 5 except for using a substance obtained in the above Comparative Preparation Example 2 instead of a substance obtained in the above Preparation Example 4 as the 4,4′-[(2,3,5,6-tetrafluoro-1,4-phenylene)bis(oxy)]bis(3,5,6-trifluorophthalic anhydride). As this mixture was stirred at room temperature as with the above-mentioned Preparation Example 5, it took about 1 hour before it became a homogeneous solution. By leaving standing further for 4 days, a yellow polyamic acid solution was obtained, but its viscosity was low. When its weight-average molecular weight was measured in the same manner as that of the above-mentioned Preparation Example 5, it was 6.04×10^4.

The nature of data set [2]: Specific surface area by Brunauer-Emmerit-Teller (BET) method. Conditions: Model NOVA 2000. On the procedure: Each specific surface area of 4,4′-[(2,3,5,6-tetrafluoro-1,4-phenylene)bis(oxy)]bis(3,5,6-trifluorophthalic anhydride) obtained in the above-mentioned Preparation Example 4 and Comparative Preparation Example 2 was measured.
The specific surface area was measured using a Brunauer-Emmerit-Teller (BET) method (Model NOVA 2000 manufactured by Quantachrome Corporation).

Data set [3] in a line: Absorbance of acetone solution measured with a spectrophotometer (coloration). Conditions: wavelength 360 nm; 0.5 g dissolved in acetone to 10 g total. The protocol:
0.5 g of 4,4′-[(2,3,5,6-tetrafluoro-1,4-phenylene)-bis(oxy)]bis(3,5,6-trifluorophthalic anhydride) obtained in the above-mentioned Preparation Example 4 was dissolved in acetone and adjusted so as to give 10 g of the total amount of the mixture. The absorbance in the visible region of this solution was measured with a spectrophotometer (UV-3100 manufactured by Shimadzu Corporation). The absorbance of the same compound prepared in the above-mentioned Comparative Preparation Example 2 was similarly measured.

Take `O=C1OC(=O)c2c(F)c(Oc3c(F)c(F)c(Oc4c(F)c(F)c5c(c4F)C(=O)OC5=O)c(F)c3F)c(F)c(F)c21` [Preparation Example 4, 4,4′-[(2,3,5,6-tetrafluoro-1,4-phenylene)bis(oxy)]bis(3,5,6-trifluorophthalic anhydride)]: the “Time before mixture became a homogeneous solution” value in data set [1] (14.51 g with 4.48 g 1,3-diamino-2,4,5,6-tetrafluorobenzene in 31 g N,N-dimethylacetamide, nitrogen) is “about 30 minutes”. Further, the Specific surface area in data set [2] is on record as 4.403 m^2/g. For the same compound, the Molar absorption coefficient in data set [3] amounted to 0.258 L/mol/cm.
On to `O=C1OC(=O)c2c(F)c(Oc3c(F)c(F)c(Oc4c(F)c(F)c5c(c4F)C(=O)OC5=O)c(F)c3F)c(F)c(F)c21` [Comparative Preparation Example 2, 4,4′-[(2,3,5,6-tetrafluoro-1,4-phenylene)bis(oxy)]bis(3,5,6-trifluorophthalic anhydride)], for which, in data set [1] (same manner as Preparation Example 5, N,N-dimethylacetamide), the “Time before mixture became a homogeneous solution” value was “about 1 hour”. In data set [2], this compound displayed a Specific surface area of 2.869 m^2/g. In data set [3], the Molar absorption coefficient was determined as 0.672 L/mol/cm.
